# ChEMBL document CHEMBL5465560, “Selectivity Literature for EUbOPEN Chemogenomic Library” (2024)
# How the values were obtained:
# [1] = biological target: T1, Serine/threonine-protein kinase D2 (Homo sapiens) (UniProt Q9BZL6); test: Selectivity interaction (KinomeScan (DiscoverX)) EUB0000045b PRKD2
# T1 sequence (whole entry): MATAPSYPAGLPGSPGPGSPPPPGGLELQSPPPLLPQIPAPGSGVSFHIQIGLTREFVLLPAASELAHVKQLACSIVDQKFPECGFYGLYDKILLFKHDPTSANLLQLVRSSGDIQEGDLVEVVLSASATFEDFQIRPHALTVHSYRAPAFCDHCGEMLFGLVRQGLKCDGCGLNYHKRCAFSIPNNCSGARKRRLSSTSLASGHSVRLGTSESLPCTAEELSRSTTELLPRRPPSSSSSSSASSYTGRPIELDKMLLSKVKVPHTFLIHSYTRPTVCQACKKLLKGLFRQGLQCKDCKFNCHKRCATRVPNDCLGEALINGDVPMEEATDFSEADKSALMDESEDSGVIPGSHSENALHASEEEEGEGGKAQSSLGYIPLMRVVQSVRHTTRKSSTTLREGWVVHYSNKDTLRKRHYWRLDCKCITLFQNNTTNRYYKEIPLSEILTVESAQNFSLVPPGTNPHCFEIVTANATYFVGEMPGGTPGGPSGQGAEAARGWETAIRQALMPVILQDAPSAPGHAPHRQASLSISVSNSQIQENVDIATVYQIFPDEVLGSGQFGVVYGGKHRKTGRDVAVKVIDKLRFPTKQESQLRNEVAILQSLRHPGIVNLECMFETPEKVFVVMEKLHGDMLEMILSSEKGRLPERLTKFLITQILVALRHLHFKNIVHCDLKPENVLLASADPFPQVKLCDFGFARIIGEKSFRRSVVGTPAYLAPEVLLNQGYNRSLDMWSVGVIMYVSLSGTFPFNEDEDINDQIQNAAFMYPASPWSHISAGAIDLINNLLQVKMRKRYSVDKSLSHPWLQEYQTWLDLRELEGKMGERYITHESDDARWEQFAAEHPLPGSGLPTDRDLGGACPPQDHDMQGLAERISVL
# [2] = biological target: cAMP-dependent protein kinase catalytic subunit beta (Homo sapiens) (UniProt P22694); test: Selectivity interaction (KinomeScan (DiscoverX)) EUB0000695a PRKACB; details: at 100 nM
# [3] = biological target: Muscarinic acetylcholine receptor M3 (Homo sapiens, UniProt P20309); test: Selectivity interaction (Panel of non-epigenetic targets (kinases, GPCRs, ion channels, and transporters, Eurofins) ) EUB0000271b CHRM3; details: at 1 µM
# Chain of Muscarinic acetylcholine receptor M3 (P20309 whole entry, looked up): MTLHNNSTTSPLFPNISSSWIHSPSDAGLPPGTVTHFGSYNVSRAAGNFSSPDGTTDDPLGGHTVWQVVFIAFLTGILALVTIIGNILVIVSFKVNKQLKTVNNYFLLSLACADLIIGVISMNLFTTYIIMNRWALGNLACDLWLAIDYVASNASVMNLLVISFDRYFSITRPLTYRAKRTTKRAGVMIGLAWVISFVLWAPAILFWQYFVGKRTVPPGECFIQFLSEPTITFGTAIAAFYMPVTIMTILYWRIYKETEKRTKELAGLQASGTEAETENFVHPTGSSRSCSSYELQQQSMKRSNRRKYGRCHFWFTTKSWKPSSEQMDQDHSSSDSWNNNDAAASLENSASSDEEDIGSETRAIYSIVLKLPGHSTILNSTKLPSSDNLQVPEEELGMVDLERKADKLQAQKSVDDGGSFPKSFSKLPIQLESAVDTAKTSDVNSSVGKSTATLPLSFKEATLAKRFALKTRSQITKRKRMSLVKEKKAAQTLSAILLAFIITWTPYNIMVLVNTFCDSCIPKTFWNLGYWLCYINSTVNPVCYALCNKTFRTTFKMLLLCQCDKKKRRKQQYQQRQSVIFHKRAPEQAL
# [4] = biological target: T2, cAMP-dependent protein kinase catalytic subunit PRKX (Homo sapiens) (UniProt P51817); test: Selectivity interaction (KinomeScan (DiscoverX)) EUB0001049a PRKX; details: at 1 µM
# T2 sequence (whole entry): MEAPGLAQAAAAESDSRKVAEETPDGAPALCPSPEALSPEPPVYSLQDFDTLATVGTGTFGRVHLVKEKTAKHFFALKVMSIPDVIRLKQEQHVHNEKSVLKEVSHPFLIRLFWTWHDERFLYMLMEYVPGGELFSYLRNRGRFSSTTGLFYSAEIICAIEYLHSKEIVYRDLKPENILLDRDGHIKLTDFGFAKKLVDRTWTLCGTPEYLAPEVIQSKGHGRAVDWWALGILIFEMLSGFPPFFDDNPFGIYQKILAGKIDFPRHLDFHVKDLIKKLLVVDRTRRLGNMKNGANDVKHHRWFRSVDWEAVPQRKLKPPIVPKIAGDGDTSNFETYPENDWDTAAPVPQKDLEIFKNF
# [5] = biological target: T3, Homeodomain-interacting protein kinase 4 (Homo sapiens) (UniProt Q8NE63); test: Selectivity interaction (ProQinase) EUB0000171b HIPK4
# T3 sequence (whole entry): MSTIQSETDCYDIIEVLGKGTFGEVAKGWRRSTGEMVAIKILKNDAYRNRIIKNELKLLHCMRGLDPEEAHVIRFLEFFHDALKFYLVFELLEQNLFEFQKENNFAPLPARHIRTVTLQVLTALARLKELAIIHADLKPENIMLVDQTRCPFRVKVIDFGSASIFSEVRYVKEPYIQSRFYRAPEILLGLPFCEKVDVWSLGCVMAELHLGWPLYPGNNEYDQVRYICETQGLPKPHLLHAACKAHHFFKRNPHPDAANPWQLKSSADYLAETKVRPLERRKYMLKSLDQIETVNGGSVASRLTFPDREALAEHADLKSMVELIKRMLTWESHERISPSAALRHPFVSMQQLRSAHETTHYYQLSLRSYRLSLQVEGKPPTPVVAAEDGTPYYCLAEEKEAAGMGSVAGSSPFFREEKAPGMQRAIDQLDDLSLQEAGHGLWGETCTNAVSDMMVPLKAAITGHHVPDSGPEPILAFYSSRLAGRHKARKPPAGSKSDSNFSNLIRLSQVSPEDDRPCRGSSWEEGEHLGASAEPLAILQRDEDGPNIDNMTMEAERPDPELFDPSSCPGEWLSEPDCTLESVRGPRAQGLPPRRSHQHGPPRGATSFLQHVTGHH
# [6] = biological target: Ribosomal protein S6 kinase alpha-3 (Homo sapiens, UniProt P51812); test: Selectivity interaction (ActivX KiNativ screen (kinase selectivity in THP-1 cell lysates)) EUB0000639a RPS6KA3; format: subcellular; details: lysate, at 1 µM
# Chain of Ribosomal protein S6 kinase alpha-3 (P51812 whole entry): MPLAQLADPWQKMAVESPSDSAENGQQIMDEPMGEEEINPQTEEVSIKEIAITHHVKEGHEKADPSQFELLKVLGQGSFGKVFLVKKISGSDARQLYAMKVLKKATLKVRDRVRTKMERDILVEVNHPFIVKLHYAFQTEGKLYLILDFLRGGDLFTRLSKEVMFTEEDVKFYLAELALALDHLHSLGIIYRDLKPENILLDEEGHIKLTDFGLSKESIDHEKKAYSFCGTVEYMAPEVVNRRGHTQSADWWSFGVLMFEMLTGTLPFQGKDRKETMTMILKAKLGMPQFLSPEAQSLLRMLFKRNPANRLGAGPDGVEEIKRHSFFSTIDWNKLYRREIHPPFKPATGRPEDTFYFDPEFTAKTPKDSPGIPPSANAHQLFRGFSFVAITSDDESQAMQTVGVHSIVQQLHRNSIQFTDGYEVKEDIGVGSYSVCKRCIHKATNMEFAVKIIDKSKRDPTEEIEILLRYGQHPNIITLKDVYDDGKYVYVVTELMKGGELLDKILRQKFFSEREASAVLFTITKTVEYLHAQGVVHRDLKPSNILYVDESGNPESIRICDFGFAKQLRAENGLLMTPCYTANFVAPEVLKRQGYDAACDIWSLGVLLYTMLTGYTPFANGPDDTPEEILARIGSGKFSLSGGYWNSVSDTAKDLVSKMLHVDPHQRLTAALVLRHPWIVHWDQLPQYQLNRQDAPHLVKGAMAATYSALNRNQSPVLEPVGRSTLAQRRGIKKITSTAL
# [7] = biological target: Serine/threonine-protein kinase PRP4 homolog (Homo sapiens) (UniProt Q13523); test: Selectivity interaction (ActivX KiNativ screen (kinase selectivity in THP-1 cell lysates)) EUB0000639a PRPF4; format: subcellular; details: lysate, at 0.2 µM
# Chain of Serine/threonine-protein kinase PRP4 homolog (Homo sapiens) (Q13523 whole entry): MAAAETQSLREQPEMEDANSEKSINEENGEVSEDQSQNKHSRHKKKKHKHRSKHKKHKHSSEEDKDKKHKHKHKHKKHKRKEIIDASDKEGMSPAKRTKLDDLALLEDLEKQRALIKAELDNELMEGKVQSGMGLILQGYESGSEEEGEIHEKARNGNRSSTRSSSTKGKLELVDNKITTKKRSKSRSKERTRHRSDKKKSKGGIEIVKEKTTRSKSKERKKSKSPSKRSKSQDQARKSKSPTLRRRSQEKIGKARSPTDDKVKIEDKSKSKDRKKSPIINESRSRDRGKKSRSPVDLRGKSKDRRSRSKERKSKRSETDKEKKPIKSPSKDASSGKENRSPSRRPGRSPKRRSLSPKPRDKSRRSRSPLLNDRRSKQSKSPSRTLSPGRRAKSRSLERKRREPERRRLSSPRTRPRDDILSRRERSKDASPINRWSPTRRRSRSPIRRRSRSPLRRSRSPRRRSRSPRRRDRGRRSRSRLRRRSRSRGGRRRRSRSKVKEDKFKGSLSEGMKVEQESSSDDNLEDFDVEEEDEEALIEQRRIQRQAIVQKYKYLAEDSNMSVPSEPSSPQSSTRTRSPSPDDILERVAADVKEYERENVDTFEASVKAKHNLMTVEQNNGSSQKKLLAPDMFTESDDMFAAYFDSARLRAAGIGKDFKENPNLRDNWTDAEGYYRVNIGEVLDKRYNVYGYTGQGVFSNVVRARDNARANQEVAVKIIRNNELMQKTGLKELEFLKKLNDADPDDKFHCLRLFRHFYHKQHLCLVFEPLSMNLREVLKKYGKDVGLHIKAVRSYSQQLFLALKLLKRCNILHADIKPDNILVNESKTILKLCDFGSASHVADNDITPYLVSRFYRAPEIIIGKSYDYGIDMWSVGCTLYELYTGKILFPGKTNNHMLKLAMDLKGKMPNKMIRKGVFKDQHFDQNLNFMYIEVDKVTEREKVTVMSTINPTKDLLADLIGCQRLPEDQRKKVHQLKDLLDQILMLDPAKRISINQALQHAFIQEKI
# [8] = biological target: Insulin-like growth factor 1 receptor (Homo sapiens, UniProt P08069); test: Selectivity interaction (KinomeScan (DiscoverX)) EUB0000092b IGF1R; details: at 10 µM
# Chain of Insulin-like growth factor 1 receptor (P08069 31-736 limits assumed): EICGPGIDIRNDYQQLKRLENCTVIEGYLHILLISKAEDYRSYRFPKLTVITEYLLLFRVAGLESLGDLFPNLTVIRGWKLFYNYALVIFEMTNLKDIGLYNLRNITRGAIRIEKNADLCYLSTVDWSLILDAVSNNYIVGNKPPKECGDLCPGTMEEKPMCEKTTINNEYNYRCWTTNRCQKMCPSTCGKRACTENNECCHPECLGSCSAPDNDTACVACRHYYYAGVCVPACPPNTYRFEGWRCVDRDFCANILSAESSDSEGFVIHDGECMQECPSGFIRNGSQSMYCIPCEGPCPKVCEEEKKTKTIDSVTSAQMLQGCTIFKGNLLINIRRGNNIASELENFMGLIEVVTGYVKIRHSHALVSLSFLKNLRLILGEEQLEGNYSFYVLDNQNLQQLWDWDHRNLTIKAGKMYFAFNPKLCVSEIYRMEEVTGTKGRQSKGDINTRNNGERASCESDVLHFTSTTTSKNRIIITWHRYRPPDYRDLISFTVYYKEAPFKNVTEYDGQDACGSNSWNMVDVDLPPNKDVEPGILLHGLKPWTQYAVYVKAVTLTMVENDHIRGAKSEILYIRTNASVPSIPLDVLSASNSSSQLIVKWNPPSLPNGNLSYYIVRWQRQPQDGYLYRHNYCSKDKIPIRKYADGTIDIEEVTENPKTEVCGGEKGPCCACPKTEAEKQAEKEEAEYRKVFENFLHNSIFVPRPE
# Chain of Insulin-like growth factor 1 receptor (P08069 741-1367 limits assumed): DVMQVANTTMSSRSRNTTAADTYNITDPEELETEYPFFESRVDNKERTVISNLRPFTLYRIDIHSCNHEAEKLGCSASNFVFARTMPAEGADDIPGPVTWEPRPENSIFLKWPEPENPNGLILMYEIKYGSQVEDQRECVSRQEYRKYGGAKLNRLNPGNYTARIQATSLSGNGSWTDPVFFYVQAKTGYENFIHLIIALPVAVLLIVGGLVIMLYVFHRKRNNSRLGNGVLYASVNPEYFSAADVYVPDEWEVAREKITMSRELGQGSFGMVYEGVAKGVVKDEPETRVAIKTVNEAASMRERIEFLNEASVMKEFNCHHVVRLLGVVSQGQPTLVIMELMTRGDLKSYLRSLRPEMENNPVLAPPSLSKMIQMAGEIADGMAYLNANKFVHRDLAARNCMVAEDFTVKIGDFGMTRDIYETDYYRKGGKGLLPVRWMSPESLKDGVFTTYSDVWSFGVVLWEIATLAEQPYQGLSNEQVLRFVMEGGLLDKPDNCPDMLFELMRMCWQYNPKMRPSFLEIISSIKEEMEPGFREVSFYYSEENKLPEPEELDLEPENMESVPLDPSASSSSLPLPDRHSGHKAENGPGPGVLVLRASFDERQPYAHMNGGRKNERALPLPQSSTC
# [9] = biological target: T4, Serine/threonine-protein kinase ULK3 (Homo sapiens) (UniProt Q6PHR2); test: Selectivity interaction (Ambit KINOMEscan and KiNATiv profiling in Jurkat cells) EUB0000090b ULK3; format: cell-based; details: at 1 µM
# T4 sequence (whole entry): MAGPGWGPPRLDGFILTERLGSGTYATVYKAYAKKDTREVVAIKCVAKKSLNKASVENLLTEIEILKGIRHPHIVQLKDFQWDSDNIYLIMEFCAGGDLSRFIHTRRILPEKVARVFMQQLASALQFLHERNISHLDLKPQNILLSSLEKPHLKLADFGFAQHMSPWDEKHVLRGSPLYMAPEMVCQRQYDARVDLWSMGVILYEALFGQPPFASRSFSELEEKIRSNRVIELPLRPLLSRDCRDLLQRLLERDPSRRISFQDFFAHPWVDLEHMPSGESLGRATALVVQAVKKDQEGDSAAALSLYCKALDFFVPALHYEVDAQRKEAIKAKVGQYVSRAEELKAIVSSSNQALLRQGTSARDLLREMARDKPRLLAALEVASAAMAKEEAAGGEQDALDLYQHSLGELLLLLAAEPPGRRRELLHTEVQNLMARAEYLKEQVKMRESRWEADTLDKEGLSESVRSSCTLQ
structure (smiles),measurement,setting,value
C=CC(=O)Nc1cc(-n2c(=O)ccc3cnc4ccc(-c5ccc(NS(C)(=O)=O)cc5)cc4c32)ccc1C,% of control,[1]; at 1 µM,87%
same,% of control,[1]; at 10 µM,82%
Cc1cc(F)c(C(=O)Nc2cccc(-c3nncn3C(C)C)n2)cc1-n1cnc(C2CC2)c1,% of control,[2],100%
Cc1cc(C)cc([C@@H]2c3cc(C)ccc3NC(=O)CN2C(=O)c2ccc(Br)s2)c1,% of inhibition,[3],12%
COc1cc(Nc2nc(C)cc(-c3cnn4nc(OC)ccc34)n2)cc(C(F)(F)F)c1,% of control,[4],87%
C=CC(=O)Nc1cccc(C(=O)Nc2ccc(Nc3cc(-c4[nH]c(SC)nc4C)ccn3)cc2)c1,% of control,[5]; at 1 µM,76%
same,% of control,[5]; at 5 µM,37%
CC[C@@H]1[C@H](F)C(=O)N[C@@H]1COc1nccc2cc(C(N)=O)c(OC)cc12 [ZIMLOVISERTIB],% of inhibition,[6],-10.7%
same,% of inhibition,[7],28.3%
CCC(=O)N1CCN(c2ccc(-n3c(=O)ccc4cnc5ccc(-c6cnc7ccccc7c6)cc5c43)cc2C(F)(F)F)CC1,% of control,[8],94%
CN(C)C/C=C/C(=O)Nc1ccc(C(=O)N2CCCC(Nc3ncc(Cl)c(-c4c[nH]c5ccccc45)n3)C2)cc1 (stereo unspecified),% of control,[9],87%
